ChEMBL document CHEMBL5370554, “Discovery of a first-in-class Aurora A covalent inhibitor for the treatment of triple negative breast cancer” (Eur J Med Chem, 2023)
Active and inactive are the calls of the source. The calls are words filed in the database; no cut-off is given here.

What was measured:
A549 = assay: Antiproliferative activity against human A549 cells assessed as inhibition of cell proliferation incubated for 48 hrs by CCK-8 assay; assay type: functional, cell-based; conditions: A549, 48 h
HeLa = assay: Antiproliferative activity against human HeLa cells assessed as inhibition of cell proliferation incubated for 48 hrs by CCK-8 assay; assay type: functional, cell-based
[1] = molecular target: T1, Aurora kinase A (Homo sapiens) (UniProt O14965); assay: Covalent binding affinity to recombinant human Aurora A (1 to 403 residues) expressed in Escherichia coli assessed as dissociation rate constant by surface plasmon resonance analysis
T1 sequence (whole entry): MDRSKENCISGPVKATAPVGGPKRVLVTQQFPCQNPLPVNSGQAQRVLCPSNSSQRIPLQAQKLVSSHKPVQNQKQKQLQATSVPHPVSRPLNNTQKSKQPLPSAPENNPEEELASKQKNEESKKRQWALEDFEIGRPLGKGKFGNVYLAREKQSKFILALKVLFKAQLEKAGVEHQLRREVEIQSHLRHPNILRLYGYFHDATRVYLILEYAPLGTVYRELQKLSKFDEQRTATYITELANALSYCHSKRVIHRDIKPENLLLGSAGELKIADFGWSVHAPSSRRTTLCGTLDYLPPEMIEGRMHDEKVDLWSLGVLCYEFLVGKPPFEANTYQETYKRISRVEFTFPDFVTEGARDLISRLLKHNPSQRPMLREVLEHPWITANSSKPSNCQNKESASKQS

[2] = molecular target: T1, Aurora kinase A (Homo sapiens); assay: Covalent binding affinity to recombinant human Aurora A (1 to 403 residues) expressed in Escherichia coli assessed as covalent adduct formation at Cys290 residue at 100 uM incubated for 4 hrs by UPLC-MS/MS analysis
[3] = molecular target: T1, Aurora kinase A (Homo sapiens); assay: Covalent irreversible inhibition of recombinant human Aurora A (1 to 403 residues) expressed in Escherichia coli using STK-substrate 2-biotin as substrate at 0.625 to 40 uM incubated upto 120 mins in presence of ATP by HTRF assay; conditions: dose 0.625-40 µM, TDE = time-dependent effect
[4] = molecular target: Aurora kinase B (Homo sapiens) (UniProt Q96GD4); assay: Inhibition of Aurora B in human MDA-MB-231 cells assessed as effect on Aurora B phosphorylation at 0.2 to 0.6 uM incubated for 1 hrs by Western blot analysis; assay type: cell-based; conditions: dose 0.2-0.6 µM
Sequence of Aurora kinase B (Homo sapiens) (Q96GD4 whole entry): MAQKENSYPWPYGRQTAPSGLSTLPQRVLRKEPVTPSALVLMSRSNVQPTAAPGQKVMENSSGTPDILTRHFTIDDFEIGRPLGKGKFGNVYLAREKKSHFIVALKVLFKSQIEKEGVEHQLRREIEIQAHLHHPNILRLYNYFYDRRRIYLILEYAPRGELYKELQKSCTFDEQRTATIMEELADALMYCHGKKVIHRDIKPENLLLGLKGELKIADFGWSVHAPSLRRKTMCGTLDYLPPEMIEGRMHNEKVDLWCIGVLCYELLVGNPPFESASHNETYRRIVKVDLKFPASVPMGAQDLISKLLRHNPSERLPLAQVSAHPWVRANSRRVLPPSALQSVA

[5] = molecular target: T1, Aurora kinase A (Homo sapiens); assay: Binding affinity to Aurora A in human MDA-MB-231 cells assessed as thermal stability at 46 to 62 degreeC at 1 uM incubated for 1 hrs by […] analysis; assay type: cell-based
Aurora kinase A [6] = molecular target: T2, Aurora kinase A (Homo sapiens, UniProt O14965); assay: Inhibition of recombinant human Aurora A (1 to 403 residues) expressed in Escherichia coli using STK-substrate 2-biotin as substrate incubated for 15 mins in presence of 2.4uM ATP by HTRF assay
T2 sequence (O14965 whole entry): T1 sequence (whole entry)

Aurora kinase A [7] = molecular target: T2, Aurora kinase A; assay: Inhibition of recombinant human Aurora A (1 to 403 residues) expressed in Escherichia coli using STK-substrate 2-biotin as substrate incubated for 15 mins in presence of 24 uM ATP by HTRF assay
Aurora kinase A [8] = molecular target: T2, Aurora kinase A; assay: Inhibition of recombinant human Aurora A (1 to 403 residues) expressed in Escherichia coli using STK-substrate 2-biotin as substrate incubated for 40 mins in presence of 0.48 uM ATP by HTRF assay
Aurora kinase A [9] = molecular target: T2, Aurora kinase A; assay: Inhibition of recombinant human Aurora A (1 to 403 residues) expressed in Escherichia coli using STK-substrate 2-biotin as substrate incubated for 40 mins in presence of 2.4uM ATP by HTRF assay
Aurora kinase A [10] = molecular target: T2, Aurora kinase A; assay: Inhibition of recombinant human Aurora A (1 to 403 residues) expressed in Escherichia coli using STK-substrate 2-biotin as substrate incubated for 60 mins in presence of 7.2uM ATP by HTRF assay
MDA-MB-231 [11] = assay: Induction of apoptosis in human MDA-MB-231 cells assessed as necrotic cells at 2.5 uM incubated for 24 hrs by Annexin V-FITC staining based flow cytometry (Rvb= 1.67%); assay type: functional
MDA-MB-231 [12] = assay: Induction of apoptosis in human MDA-MB-231 cells assessed as late apoptotic cells at 1.25 uM incubated for 24 hrs by Annexin V-FITC staining based flow cytometry (Rvb= 6.90%); assay type: functional
MDA-MB-231 [13] = assay: Induction of apoptosis in human MDA-MB-231 cells assessed as early apoptotic cells at 2.5 uM incubated for 24 hrs by Annexin V-FITC staining based flow cytometry (Rvb= 3.3%); assay type: functional
MDA-MB-231 [14] = assay: Induction of apoptosis in human MDA-MB-231 cells assessed as early apoptotic cells at 5 uM incubated for 24 hrs by Annexin V-FITC staining based flow cytometry (Rvb= 3.3%); assay type: functional
MDA-MB-231 [15] = assay: Induction of apoptosis in human MDA-MB-231 cells assessed as live cells at 2.5 uM incubated for 24 hrs by Annexin V-FITC staining based flow cytometry (Rvb= 88.1%); assay type: functional
MDA-MB-231 [16] = assay: Inhibition of […] in human MDA-MB-231 cells at 1 uM incubated for 14 days by crystal violet staining based colony formation assay (Rvb= 115+/-4%); assay type: functional; conditions: MDA-MB-231, 336 h, time 14 day
[17] = Metabolic stability in Sprague-Dawley rat liver microsomes assessed as half life at 1.75 uM incubated upto 60 mins in presence of NADPH by LC-MS analysis; assay type: ADME, Microsome
[18] = Toxicity in BALB/c nude mouse xenografted with human MDA-MB-231 cells assessed as body weight change at 15 mg/kg,ip every 2days for 20 days; assay type: organism-based; conditions: in vivo, 480 h, time 20 day
Mus musculus [19] = assay: In vivo inhibition of Aurora signalling pathway in human MDA-MB-231 cells xenografted in BALB/c nude mouse assessed as decrease in Aurora A phosphorylation at Thr288 residue in tumor at 15 mg/kg,ip every 2days for 20 days by Western blot analysis; assay type: functional, organism-based; conditions: time 20.0 day
Mus musculus [20] = assay: In vivo inhibition of Aurora signalling pathway in human MDA-MB-231 cells xenografted in BALB/c nude mouse assessed as decrease in Aurora B phosphorylation at Thr232 residue in tumor at 15 mg/kg,ip every 2days for 20 days by Western blot analysis; assay type: functional, organism-based; conditions: time 20.0 day
[21] = Toxicity in BALB/c nude mouse xenografted with human MDA-MB-231 cells assessed as parenchymal injury in heart at 15 mg/kg,ip every 2days for 20 days by Hematoxylin and Eosin staining based microscopy; assay type: organism-based; conditions: in vivo, 480 h, time 20 day
[22] = Toxicity in BALB/c nude mouse xenografted with human MDA-MB-231 cells assessed as parenchymal injury in spleen at 15 mg/kg,ip every 2days for 20 days by Hematoxylin and Eosin staining based microscopy; assay type: organism-based; conditions: in vivo, 480 h, time 20 day
[23] = Toxicity in BALB/c nude mouse xenografted with human MDA-MB-231 cells assessed as inflammatory cell infiltration in heart at 15 mg/kg,ip every 2days for 20 days by Hematoxylin and Eosin staining based microscopy; assay type: organism-based; conditions: in vivo, 480 h, time 20 day
[24] = Toxicity in BALB/c nude mouse xenografted with human MDA-MB-231 cells assessed as inflammatory cell infiltration in liver at 15 mg/kg,ip every 2days for 20 days by Hematoxylin and Eosin staining based microscopy; assay type: organism-based; conditions: in vivo, 480 h, time 20 day
[25] = Toxicity in BALB/c nude mouse xenografted with human MDA-MB-231 cells assessed as inflammatory cell infiltration in lung at 15 mg/kg,ip every 2days for 20 days by Hematoxylin and Eosin staining based microscopy; assay type: organism-based; conditions: in vivo, 480 h, time 20 day

## C=CC(=O)Nc1ccc(-c2nc(Nc3cc(C)[nH]n3)c3ccc(N4CCN(C)CC4)cc3n2)cc1
A549
  IC50: 3080 nM
HeLa
  IC50: 6990 nM
[1]
  Activity: Active
[2]
  Activity: Active
[3]
  inhibition: Tde
[4]
  inhibition: inactive
[5]
  Activity: Active
Aurora kinase A [6]
  IC50: 4.01 nM
Aurora kinase A [7]
  IC50: 5.24 nM
Aurora kinase A [8]
  IC50: 1.55 nM
Aurora kinase A [9]
  IC50: 2.77 nM
Aurora kinase A [10]
  IC50: 8.13 nM
MDA-MB-231 [11]
  Activity: 1.14%
MDA-MB-231 [12]
  Activity: 18.1%
MDA-MB-231 [13]
  Activity: 17.7%
MDA-MB-231 [14]
  Activity: 28.6%
MDA-MB-231 [15]
  Activity: 60.1%
MDA-MB-231 [16]
  inhibition at 1 µM: 13%
[17]
  half-life at 1.75 µM: 24.3 min
[18]
  Activity: Non-Toxic
Mus musculus [19]
  inhibition: Active
Mus musculus [20]
  inhibition: inactive
[21]
  Activity: Non-Toxic
[22]
  Activity: Non-Toxic
[23]
  Activity: Non-Toxic
[24]
  Activity: Non-Toxic
[25]
  Activity: Non-Toxic
